Test results from patent US7629130B2 (priority 2005, dated 2009).
Where two headings read alike, the source gives them in different places.

Assays:
[1] = system: Dictyostelium; format: cell-based, Dictyostelium discoideum
[2] = system: L. pneumophila within Dictyostelium; format: cell-based, Legionella pneumophila; conditions: within 6-8 days; 10 μM LY (FIG. 2C); MOI 1
[3] = system: L. pneumophila
[4] = system: Dictyostelium
[5] = system: Legionella-containing vacuoles in calnexin-GFP-labeled Dictyostelium; format: cell-based, Dictyostelium discoideum
[6] = system: Legionella-containing vacuoles in Dictyostelium; format: cell-based, Dictyostelium discoideum; conditions: 20 μM LY; 1 h infection; p<10^−9
[7] = latrunculin B 1-50 μM, cytochalasin A 1-50 μM, cytochalasin D up to 50 μM, 1 h prior infection

C=C1[C@@H](C)[C@H]2[C@H](Cc3ccccc3)NC(=O)[C@]23OC(=O)/C=C/C(=O)CCC[C@@H](C)C/C=C/[C@H]3[C@@H]1O [cytochalasin A]
Icm/Dot-dependent phagocytosis [1]: blocked | inhibition of phagocytosis (uptake) of L. pneumophila [1, 7]: blocked phagocytosis in a dose-dependent manner

C=C1[C@@H](C)[C@H]2[C@H](Cc3ccccc3)NC(=O)[C@]23[C@H](OC(C)=O)/C=C/[C@@](C)(O)C(=O)[C@@H](C)C/C=C/[C@H]3[C@@H]1O [cytochalasin D]
inhibition of phagocytosis (uptake) of L. pneumophila [1, 7]: did not prevent uptake

O=c1cc(N2CCOCC2)oc2c(-c3ccccc3)cccc12 [LY294002]
factor more wild-type L. pneumophila released compared to wild-type Dictyostelium [2]: ~100 | viability of L. pneumophila (CFU) ([3]; wortmannin 0.1-10 μM, LY294002 5-25 μM, HL5 medium): did not affect viability | viability of Dictyostelium (PFU) [4]: did not affect viability | viability of Dictyostelium Ax3 in MB medium [4]: as viable as untreated | viability of Dictyostelium at later time points (PFU on K. pneumoniae lawns) [4]: reduced viability | portion of spacious LCVs ([5]; 15 min post infection, 20 μM LY-treated wild-type Dictyostelium (untreated 25%)): less than 5% | portion of spacious LCVs ([5]; within 2 h, 20 μM LY-treated wild-type Dictyostelium (untreated 40%)): 20% | change in phagocytosis of wild-type L. pneumophila ([1]; wild-type Dictyostelium treated with PI3K inhibitor (FIG. 2A: 5 μM wortmannin)): −33% | factor more SidC localized to LCV membranes compared to untreated wild-type Dictyostelium [6]: ~1.5

COC[C@H]1OC(=O)c2coc3c2[C@@]1(C)C1=C(C3=O)[C@@H]2CCC(=O)[C@@]2(C)C[C@H]1OC(C)=O [wortmannin]
viability of L. pneumophila (CFU) [3]: did not affect viability | viability of Dictyostelium (PFU) [4]: did not affect viability | viability of Dictyostelium Ax3 in MB medium [4]: as viable as untreated | change in phagocytosis of wild-type L. pneumophila [1]: −19%

C/C1=C/C(=O)O[C@@H]2C[C@@H](CC[C@H](C)/C=C\CC1)O[C@@](O)([C@@H]1CSC(=O)N1)C2 [latrunculin B]
Icm/Dot-dependent phagocytosis [1]: blocked | inhibition of phagocytosis (uptake) of L. pneumophila [1]: blocked phagocytosis in a dose-dependent manner | phagocytosis (FIG. 1) [1]: blocked
